Results reported in a compilation of properties of binary mixtures (doi:10.1021/je0498457).

Assay: excess molar enthalpy (molar enthalpy of mixing); xn = mol fraction of the nth substance listed
Details: 100 kPa

`C1CCOCC1` + CCCCO showed an excess molar enthalpy (283.15 K, x1 = 0.04) of 0.118 kJ/mol, an excess molar enthalpy (283.15 K, x1 = 0.09) of 0.24 kJ/mol and an excess molar enthalpy (283.15 K, x1 = 0.188) of 0.452 kJ/mol. It also gave an excess molar enthalpy (283.15 K, x1 = 0.288) of 0.627 kJ/mol, an excess molar enthalpy (283.15 K, x1 = 0.39) of 0.761 kJ/mol and an excess molar enthalpy (283.15 K, x1 = 0.49) of 0.833 kJ/mol. It also gave an excess molar enthalpy (283.15 K, x1 = 0.593) of 0.852 kJ/mol, an excess molar enthalpy (283.15 K, x1 = 0.694) of 0.802 kJ/mol and an excess molar enthalpy (283.15 K, x1 = 0.796) of 0.664 kJ/mol. It also gave an excess molar enthalpy (283.15 K, x1 = 0.901) of 0.403 kJ/mol, an excess molar enthalpy (283.15 K, x1 = 0.952) of 0.221 kJ/mol and an excess molar enthalpy (298.15 K, x1 = 0.04) of 0.125 kJ/mol. For the same compound, the excess molar enthalpy (298.15 K, x1 = 0.09) was 0.257 kJ/mol, the excess molar enthalpy (298.15 K, x1 = 0.288) was 0.691 kJ/mol and the excess molar enthalpy (298.15 K, x1 = 0.39) was 0.841 kJ/mol. It also gave an excess molar enthalpy (298.15 K, x1 = 0.593) of 0.931 kJ/mol, an excess molar enthalpy (298.15 K, x1 = 0.796) of 0.698 kJ/mol and an excess molar enthalpy (298.15 K, x1 = 0.901) of 0.412 kJ/mol. It also gave an excess molar enthalpy (298.15 K, x1 = 0.952) of 0.222 kJ/mol, an excess molar enthalpy (313.15 K, x1 = 0.04) of 0.119 kJ/mol and an excess molar enthalpy (313.15 K, x1 = 0.09) of 0.258 kJ/mol. It also gave an excess molar enthalpy (313.15 K, x1 = 0.188) of 0.517 kJ/mol, an excess molar enthalpy (313.15 K, x1 = 0.288) of 0.736 kJ/mol and an excess molar enthalpy (313.15 K, x1 = 0.39) of 0.899 kJ/mol. For the same compound, the excess molar enthalpy (313.15 K, x1 = 0.49) was 0.981 kJ/mol, the excess molar enthalpy (313.15 K, x1 = 0.694) was 0.912 kJ/mol and the excess molar enthalpy (313.15 K, x1 = 0.796) was 0.716 kJ/mol. For the same compound, the excess molar enthalpy (313.15 K, x1 = 0.901) was 0.408 kJ/mol and the excess molar enthalpy (313.15 K, x1 = 0.952) was 0.216 kJ/mol.
